Earlier results as cited in patent US20050287587A1, “Production of glycosylated macrolides in E. coli” (The Board of Trustees of the Leland Stanford Junior …, priority 2002, published 2005).

Details: general background statement, no strain or method given

CC[C@H]1OC(=O)[C@H](C)[C@@H](O)[C@H](C)[C@@H](O)[C@@H](C)C[C@@H](C)C(=O)[C@H](C)[C@@H](O)[C@H]1C [6-deoxyerythronolide B]
antibacterial activity: no antibacterial activity
